Measurements taken from ChEMBL document CHEMBL5154721, “Discovery of HDAC6-Selective Inhibitor NN-390 with in Vitro Efficacy in Group 3 Medulloblastoma” (J Med Chem, 2022).
Active and inactive are the calls of the source. No cut-off for these calls is given here.

How the values were obtained:
MV4-11 [1] = experiment: Induction of apoptosis in human MV4-11 cells assessed as early apoptotic cells at 2 uM after 24 hrs by Annexin V/PI staining based flow cytometric analysis (Rvb=2%); type: functional
HD-MB03 = experiment: Antiproliferative activity against human HD-MB03 cells at 964 nM after 4 hrs by microplate reader method; type: functional, cell-based
[2] = Dissociation constant, pKa of compound; type: physicochemical
MV4-11 [3] = experiment: Induction of apoptosis in human MV4-11 cells assessed as viable cells at 1 uM after 24 hrs by Annexin V/PI staining based flow cytometric analysis (Rvb=58.28%); type: functional; settings: read-out: Activity
[4] = target: T1, Protein deacetylase HDAC6 (Homo sapiens) (UniProt Q9UBN7); experiment: Inhibition of full length human recombinant HDAC6 in human MV4-11 cells assessed as increase in acetylation of histone H3 for 6 hrs by immunofluorescence imaging method; type: cell-based; settings: dose 0.1-2 µM, DDE = dose-dependent effect
T1 sequence (whole entry): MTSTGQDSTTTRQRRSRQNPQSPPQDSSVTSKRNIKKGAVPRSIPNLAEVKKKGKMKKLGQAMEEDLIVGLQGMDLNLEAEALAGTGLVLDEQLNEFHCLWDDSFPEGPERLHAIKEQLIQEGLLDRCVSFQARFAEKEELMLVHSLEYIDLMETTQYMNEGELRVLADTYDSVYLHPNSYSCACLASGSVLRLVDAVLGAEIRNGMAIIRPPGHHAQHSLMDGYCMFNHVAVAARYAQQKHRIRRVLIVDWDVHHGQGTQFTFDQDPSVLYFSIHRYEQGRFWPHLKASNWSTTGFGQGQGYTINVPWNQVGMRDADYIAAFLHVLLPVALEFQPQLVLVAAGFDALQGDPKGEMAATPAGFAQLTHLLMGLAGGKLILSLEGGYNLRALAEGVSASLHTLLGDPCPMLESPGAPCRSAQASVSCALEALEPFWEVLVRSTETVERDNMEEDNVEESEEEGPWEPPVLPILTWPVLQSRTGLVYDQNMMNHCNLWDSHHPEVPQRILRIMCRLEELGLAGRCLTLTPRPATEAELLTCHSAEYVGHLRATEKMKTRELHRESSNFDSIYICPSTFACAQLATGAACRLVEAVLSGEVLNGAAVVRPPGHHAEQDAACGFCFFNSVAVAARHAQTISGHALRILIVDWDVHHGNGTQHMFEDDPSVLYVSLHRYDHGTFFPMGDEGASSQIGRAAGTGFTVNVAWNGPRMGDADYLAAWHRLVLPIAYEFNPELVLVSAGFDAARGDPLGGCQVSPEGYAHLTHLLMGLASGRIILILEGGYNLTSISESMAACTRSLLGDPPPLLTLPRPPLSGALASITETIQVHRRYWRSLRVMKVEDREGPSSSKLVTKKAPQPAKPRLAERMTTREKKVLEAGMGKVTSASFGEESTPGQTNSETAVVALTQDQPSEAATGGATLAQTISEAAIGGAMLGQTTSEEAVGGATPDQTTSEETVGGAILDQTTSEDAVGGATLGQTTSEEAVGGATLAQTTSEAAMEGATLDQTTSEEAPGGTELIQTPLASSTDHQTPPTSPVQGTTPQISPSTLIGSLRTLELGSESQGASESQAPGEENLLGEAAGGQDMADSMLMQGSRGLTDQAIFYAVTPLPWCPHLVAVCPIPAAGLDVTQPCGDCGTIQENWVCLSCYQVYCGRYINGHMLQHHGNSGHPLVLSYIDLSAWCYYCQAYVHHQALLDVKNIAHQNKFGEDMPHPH

[5] = Stability in human plasma assessed as half life measured upto 60 mins by LC-MS/MS analysis; type: ADME, cell-free
[6] = Cytotoxicity against human primary pooled fibroblasts cells assessed as inhibition of cell growth incubated for 72 hrs measured by spectrophotometer analysis; type: toxicity, cell-based, Fibroblast
MB002 = experiment: Cytotoxicity against refractory human group 3 SU_MB002 cells; type: functional, cell-based
[7] = Cytotoxicity against primary normal human fibroblast cells assessed as inhibition of cell growth incubated for 72 hrs measured by spectrophotometer analysis; type: toxicity, cell-based
MV4-11 [8] = experiment: Induction of apoptosis in human MV4-11 cells assessed as viable cells at 2 uM after 24 hrs by Annexin V/PI staining based flow cytometric analysis (Rvb=58.28%); type: functional; settings: read-out: Activity
[9] = target: T1, Protein deacetylase HDAC6 (Homo sapiens); experiment: Binding affinity to full length human recombinant HDAC6 expressed in Sf9 baculovirus system assessed as residence time (1/koff)
Histone deacetylase 5 = Histone deacetylase 5 (Homo sapiens, UniProt Q9UQL6); experiment: Inhibition of full length human recombinant HDAC5 expressed in Sf9 baculovirus system using FAM-labeled acetylated peptide as substrate by measuring fluorescence intensity by EMSA method
[10] = target: T1, Protein deacetylase HDAC6 (Homo sapiens); experiment: Inhibition of full length human recombinant HDAC6 in human MV4-11 cells assessed as increase in acetylation of alpha-tubulin at 0.1 uM for 6 hrs by Western blot analysis; type: cell-based
Histone deacetylase 9 = Histone deacetylase 9 (Homo sapiens, UniProt Q9UKV0); experiment: Inhibition of full length human recombinant HDAC9 expressed in Sf9 baculovirus system using FAM-labeled acetylated peptide as substrate by measuring fluorescence intensity by EMSA method
[11] = Cytotoxicity against HUVEC cells assessed as inhibition of cell growth incubated for 72 hrs measured by spectrophotometer analysis; type: toxicity, cell-based; settings: human

Histone deacetylase 9, sequence (Q9UKV0 whole entry): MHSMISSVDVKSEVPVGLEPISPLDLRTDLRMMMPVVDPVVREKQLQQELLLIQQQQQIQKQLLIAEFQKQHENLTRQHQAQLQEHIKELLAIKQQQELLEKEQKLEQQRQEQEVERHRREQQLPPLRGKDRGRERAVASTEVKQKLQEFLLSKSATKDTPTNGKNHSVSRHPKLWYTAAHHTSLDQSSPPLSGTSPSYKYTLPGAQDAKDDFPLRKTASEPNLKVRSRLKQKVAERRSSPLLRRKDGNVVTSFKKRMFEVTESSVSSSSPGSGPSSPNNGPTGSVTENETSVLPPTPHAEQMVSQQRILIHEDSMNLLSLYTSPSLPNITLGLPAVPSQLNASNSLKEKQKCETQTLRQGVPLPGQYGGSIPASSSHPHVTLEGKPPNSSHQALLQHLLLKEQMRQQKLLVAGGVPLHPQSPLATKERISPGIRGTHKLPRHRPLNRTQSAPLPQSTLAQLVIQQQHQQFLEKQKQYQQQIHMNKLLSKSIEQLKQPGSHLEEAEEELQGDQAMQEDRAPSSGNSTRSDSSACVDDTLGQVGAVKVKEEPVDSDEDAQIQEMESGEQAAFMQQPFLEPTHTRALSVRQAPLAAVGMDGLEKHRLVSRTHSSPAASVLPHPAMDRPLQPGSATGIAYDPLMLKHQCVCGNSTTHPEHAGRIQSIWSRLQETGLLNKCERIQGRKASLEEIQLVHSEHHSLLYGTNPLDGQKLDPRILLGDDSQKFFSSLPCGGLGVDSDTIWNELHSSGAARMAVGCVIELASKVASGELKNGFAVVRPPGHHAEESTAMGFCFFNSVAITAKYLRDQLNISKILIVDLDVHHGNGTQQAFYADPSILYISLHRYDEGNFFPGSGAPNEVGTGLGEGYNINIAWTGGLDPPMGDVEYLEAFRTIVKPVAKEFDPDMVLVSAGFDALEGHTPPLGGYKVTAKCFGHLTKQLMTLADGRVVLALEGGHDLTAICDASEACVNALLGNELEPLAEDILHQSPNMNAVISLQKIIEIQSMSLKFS
Histone deacetylase 5, sequence (Q9UQL6 whole entry): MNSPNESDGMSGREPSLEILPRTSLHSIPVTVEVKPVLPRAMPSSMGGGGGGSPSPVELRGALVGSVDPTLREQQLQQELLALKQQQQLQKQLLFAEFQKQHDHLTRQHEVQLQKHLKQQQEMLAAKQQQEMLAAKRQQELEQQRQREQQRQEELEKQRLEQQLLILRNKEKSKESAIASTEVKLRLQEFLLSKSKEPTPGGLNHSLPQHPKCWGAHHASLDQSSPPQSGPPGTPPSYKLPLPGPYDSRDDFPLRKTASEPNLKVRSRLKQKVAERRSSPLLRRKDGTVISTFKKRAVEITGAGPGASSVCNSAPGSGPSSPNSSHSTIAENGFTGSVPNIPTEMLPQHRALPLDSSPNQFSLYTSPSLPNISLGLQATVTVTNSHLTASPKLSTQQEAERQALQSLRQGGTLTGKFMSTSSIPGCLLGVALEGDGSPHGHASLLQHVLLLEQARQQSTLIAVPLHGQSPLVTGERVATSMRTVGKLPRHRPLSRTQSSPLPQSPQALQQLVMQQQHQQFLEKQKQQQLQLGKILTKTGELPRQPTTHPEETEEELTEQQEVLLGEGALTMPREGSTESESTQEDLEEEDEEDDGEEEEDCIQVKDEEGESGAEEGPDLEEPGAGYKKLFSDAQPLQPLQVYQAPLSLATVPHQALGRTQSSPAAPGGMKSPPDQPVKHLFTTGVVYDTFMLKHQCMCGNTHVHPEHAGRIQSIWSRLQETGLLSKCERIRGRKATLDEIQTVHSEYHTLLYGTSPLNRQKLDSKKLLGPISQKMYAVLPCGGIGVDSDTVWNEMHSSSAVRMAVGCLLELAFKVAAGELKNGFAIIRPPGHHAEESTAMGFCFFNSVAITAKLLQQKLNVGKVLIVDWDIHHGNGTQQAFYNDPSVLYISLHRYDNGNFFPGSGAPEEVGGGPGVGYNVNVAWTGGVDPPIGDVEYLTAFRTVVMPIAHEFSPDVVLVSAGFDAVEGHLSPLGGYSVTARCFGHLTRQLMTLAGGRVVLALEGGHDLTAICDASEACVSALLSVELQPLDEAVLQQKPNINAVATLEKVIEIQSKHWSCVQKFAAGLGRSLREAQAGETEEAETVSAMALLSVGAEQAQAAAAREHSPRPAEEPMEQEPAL

CC(C)N(Cc1ccc(C(=O)NO)cc1)S(=O)(=O)c1cc(F)c(F)c(F)c1F
Activity (MV4-11 [1]): 3.59% | Activity (HD-MB03): Active | pKa [2]: 8.77 | viability at 1 µM (MV4-11 [3]): 56.3% | inhibition [4]: Dde | half-life [5]: 1.92 h | IC50 at 72 h [6]: 8.8 µM | Activity (MB002): Active | IC50 at 72 h [7]: 12.4 µM | viability at 2 µM (MV4-11 [8]): 32.9% | TIME [9]: 0.133 h | IC50 (Histone deacetylase 5): > 3 µM | inhibition [10]: Active | IC50 (Histone deacetylase 9): > 5 µM | IC50 at 72 h [11]: 10.1 µM
